Experimental findings from US8580749B2, “Peptide-coated cell localization to diseased or damaged tissues and methods related thereto” (Cell Targeting, Inc., priority 2009, dated 2013) are described below.

The subject of one series is heart. The series can be described thus: Phage screen of 12 phage in mice with myocardial infarction. The following applies: for preferential localization of phage-displayed peptide in the heart: mice 1, 3 and 7 days after MI, phage circulated 10 minutes; for time point preference of heart localization after infarct: 1, 3 and 7 days post-MI. It is filed as in vivo. Here is the method:
A limited phage screen of 12 phage was performed in a study against mice with myocardial infarction (MI) lasting 1, 3 and 7 days. This panel of phage was selected to include phage with a greater potential for injured tissue, a positive non-specific control and a negative control phage. All publications and references cited in FIG. 24 are incorporated by reference to the extent such incorporation is not contrary to the invention described therein. Nothing herein is to be construed as an admission that the invention is not entitled to antedate such disclosure by virtue of prior invention.
Amplified phage were mixed in a 1:1 ratio and 200 μl injected at 1×10^9 pfu/ml into animals 1, 3 and 7 days after myocardial ischemia was produced. Phage were allowed to circulate for 10 minutes before the animal was perfused through the left ventricle with warmed DMEM/BSA (1%, ˜10 ml) with the right ventricle cut. Tissues (heart, lung, liver, spleen, kidney) were then harvested and stored on ice in 1 ml of DMEM/BSA (1%) before homogenization (Omni International TH homogenizer). Four washes were performed using PBS/BSA (1%) with centrifugation at 2800 RCF (5 min, 4° C.) and resuspension in PBS/BSA (1%). After the final wash, homogenates were weighed then lysed with 100 μl Triton-X-100 (1% in PBS) on ice for 15 minutes; 900 ul of BLT5403 (OD 600) was then added and incubated for 10 minutes (r.t.). This solution was then serially diluted in LB+CarbenicilHn and 240 ul aliquots taken into 1.2 ml BLT5403 and 600 μl plated on 10 cm agar plates with 4 ml top agar. Following overnight incubation, plaques were counted and the pfu/g tissue homogenate was calculated. Plaques were picked into 30 μl of PBS, 1 μl of this solution was transferred into 14 μl PCR mix (GoTaq Green Master Mix 7.5 μl, 1.5 μl 5 μM T7down (AACCCCTCAAGACCCGTTTA (SEQ ID NO: 13)), 1.5 μl 5 μM T7 Superup (AGCGGACCAGATTATCGCTA (SEQ ID NO: 24)), 3.5 μl of DNAse free water). This mix was then subjected to polymerase chain reaction (PCR) (1 cycle of 5 min 94° C.; 35 cycles of 94° C. 30 s, 50° C. 30 s, 72° C. 1 min; 1 cycle 72° C. 1 min; hold at 4° C.). The PCR samples then underwent cleanup and sequencing.

In another series the test system is ischemic hindlimb. The series can be described thus: Fluorescent peptide homing studies, mouse hindlimb ischemia model. The following applies: for homing of peptide in the mouse ischemic hindlimb: cryosections, FIG. 16; for tissue to which the peptide homed: fluorescent peptide studies. It is filed as in vivo. As for the experimental part: Four palmitated peptides were synthesized: SK(biotin)[…] […] Human mesenchymal stem cells (hMSCs) were transiently coated with the four palmitated peptides and fluorescently labeled with Vybrant dye. […] MSCs were grown in DMEM/FBS (10%) supplemented with FGF (5 ng/ml), then trypsinized, washed with DMEM and aliquoted at 1 million cells/vial and resuspended in Tyrodes. […] Cell solutions were then centrifuged (200 RCF, 5 min, r.t.), washed twice with cold Tyrodes, then incubated for 20 min with 20 μg/ml streptavidin-PE (S866 Invitrogen), washed with Tyrodes, fixed with formalin, and then assessed using flow cytometry and epifluorescent microscopy.
For animal experiments, MSCs were first incubated with Vybrant green (CDFA SE; Invitrogen) washed with Tyrodes, then coated with 50 μg/ml PA-peptides for 10 min at 37° C. with shaking. Following coating, cells were washed with Tyrodes twice and resuspended to give 5×10^6 cells/ml. Ischemia was produced in the left hind-limb through ligation and severing of the femoral artery in mice. Three days post ischemia, mice were injected with […] through the subclavian vein and cells allowed to circulate for two hours before sacrifice. Distribution of injected MSCs was monitored by whole-body (“Xenogen”) fluoroscopy. Animals were sacrificed and tissues (heart, lung, liver, spleen, kidney, left calf muscle, left femur muscle, right calf muscle and right femur muscle) were harvested and fluorescence histology was done on tissue cryosections.

In a further series the test system is ischemic hearts. In words: Uptake and localization of fluorescently labeled CRPPR in ischemic hearts. It counts as in vivo, mouse. The following applies: 30 minutes, 6 hour and 24 hour ischemia. As for the experimental part:
Fluorescently labeled CRPPR (SEQ ID NO: 1) was also studied for uptake and localization in ischemic hearts (30 minutes, 6 hour and 24 hour ischemia). This fluorescently labeled peptide was injected through the subclavian vein and allowed to circulate for two hours before sacrifice. Tissues (heart, lung, liver, spleen and kidney) were harvested, placed in TISSUE-TEK® molds and frozen in OCT cryomounting medium. The tissues were stored on dry ice until being placed at −80° C. and 8-10 μn sections were made.
Sections of heart tissue through different regions of the heart were imaged using a fluorescent microscope and CCD camera. The images were then assessed for total fluorescence using ImageJ (Image Processing and Analysis in Java) (see FIG. 2).

The subject of a further series is heart tissue. The series can be described thus: Homing of peptide-coated MSCs in mouse MI reperfusion model. It counts as in vivo, C57BL6 mice. The following applies: for distribution of cells within heart tissue: coated MSCs, 1 hour circulation, day after 30 minute ischemia/reperfusion.
The subject of series [1] is human mesenchymal stem cells (MSCs). The series can be described thus: MTT toxicity assay of PA-peptides. The following applies: 1 hour incubation. It is filed as cell-based. Here is the method: Human mesenchymal stem cells (MSCs) were seeded on 96-well plates (5.8×10^3 cells/well; DMEM/FBS 10%) and allowed to grow/adhere for 2 days. Media was removed and PA-peptides were added (0-0.1 mg/ml) to the cells. Toxicity was assessed after 10 minute incubation and 1 hour incubation. Acute effects were assessed immediately following the 10 minute exposure, and longer-term effects were measured the next day after the 10 minute exposure and the 1 hour exposure. Toxicity was assessed using the MTT method. Briefly, 20 μl of MTT (5 mg/ml in PBS, sterile filtered, Corning 0.22 μm Polyethersulfone) was added to each well and the plate was then incubated for 4 hours at 37° C. Media containing MTT was then carefully removed and 100 μl of dimethyl sulfoxide (DMSO) was added to each well. Plates were incubated for a further 30 minutes at 37° C. to solubilize the purple formazan crystals, and absorbance was then measured using a plate reader (570 nm; Tekan Genios Pro).
(Tetrazolium dyes change colour on reduction, which living cells bring about.)

Series [2] shares this test system. Here is the method:
MSCs were grown in Dulbecco's Modified Eagle's Medium (DMEM) and fetal bovine serum (FBS) (10%) supplemented with fibroblast growth factor-2 (FGF-2) (5 ng/ml) for 1 week. They were then trypsinized, washed with DMEM, aliquoted at 1 million cells/vial and resuspended in Tyrodes' balanced salt solution. […] was later used throughout the coating procedure. […] Cell solutions were centrifuged (200 RCF, 5 min, r.t.), washed twice with cold Tyrodes solution, then incubated for 20 minutes with 20 μg/ml streptavidin-PE (S866 Invitrogen), washed with Tyrodes solution, fixed with formalin, and then assessed using flow cytometry and epifluorescent microscopy.

No end group written: not given here. *: point of attachment. Palmitoyl = CCCCCCCCCCCCCCCC(=O)*

Description for heart tissue: C57BL6 mice were operated on with a sterile surgical technique. Mice were anaesthetized and intubated. A longitudinal incision was made in the thorax and the heart elevated. The left anterior descending artery was identified, and a ligature suture was placed around the artery and tightened down over a piece of polyethylene tubing placed above the artery, as shown in FIG. 1. After 30 minutes the ligation was released, the chest closed and the mouse was allowed to recover. The following day the mouse was again anaesthetized and intubated, the thoracotomy re-opened and cells administered through the left ventricle (1×10^6 cells). Cells were allowed to circulate for 1 hour before blood was collected into EDTA tubes and the mouse sacrificed via exsanguination. Blood was collected just prior to exsanguination to provide samples for assay of Troponin I levels.
Sections were cryosectioned 8 microns thick, mounted in sequence onto slides and viewed for the fluorescent label of the cells.
Histology sections of cardiac tissues were examined for VYBRANT® (CDFA SE; Invitrogen) green-labeled cells to determine the cells' propensity to target or home to distinct regions of the tissues, especially those associated with the infarcted region. Outcomes were evaluated via quantitative fluorescent microscopy of infarcted and non-infarcted tissues. Area in millimeters squared were calculated from representative cross-sections and numbers of cells were counted on a series of sections taken through the heart.
Sections of heart tissue were also analyzed using fluorescent microscopy. Five slides containing six sections per slide were analyzed. On each section a count of the number of cells was made. The count was then normalized against the area of the centre section on that slide.
An enzyme-linked immunosorbent assay (ELISA) (Life Diagnostics, Inc., Cat. No. 2010-1-HSP) of cardiac troponin I was made on the plasma collected from each mouse according to the manufacturer's method. Briefly, 60 μl of plasma sample was diluted with 180 μl plasma diluent. Standards and samples (100 μl) were added to coated wells containing 100 μl of cardiac troponin I horse radish peroxidase conjugate. These were mixed on an orbital shaker at room temperature for 1 hour. This solution was removed and the wells were washed thoroughly; 100 μl of tetramethylbenzidine reagent was then added to each well. This was incubated on the orbital shaker at room temperature for 20 minutes, then stop solution was added (100 μl) and the absorbance read at 450 nm (Tecan Genios Pro).

On to CARSKNKDC (Targeting Sequence 5), for which the “preferential localization of phage-displayed peptide in the heart” value (“preferential localization” below) with heart is “some preferential localization in the heart”.
With “CGLIIQKNEC (Targeting Sequence 3) [Clot1, homing peptide]”, in the series on ischemic hindlimb, the “homing of peptide in the mouse ischemic hindlimb” value was “homing”.
As for CREKA (Targeting Sequence 8), in the series on heart, the “time point preference of heart localization after infarct” value was “three day time point” and the “preferential localization” value is recorded as “some preferential localization in the heart”.
Turning to “CRKDKC (cysteine pairing not given here; also: fluorescent label, position not given here)”, the “preferential localization” value in the series with heart is on record as “some preferential localization”. The “homing of peptide in the mouse ischemic hindlimb” value in the series on ischemic hindlimb is “homing”.
As to CRPPR (not fully specified), in the series with heart, the “time point preference of heart localization after infarct” value is reported as “some preference for the earlier time point after infarct” and the “preferential localization” value is on record as “some preferential localization in the heart”. The “ischemia time at which localization was most pronounced” value in the series with ischemic hearts was “most pronounced after 24 hour ischemia”. The “localization of fluorescent peptide in heart tissue” value with ischemic hearts (two hours circulation) is recorded as “localize in heart tissue”.
As for “PA-CRKDKC (Palmitoyl-CRKDKC; cysteine pairing not given here) [palmitated peptide (cell paint)]”, the “distribution of cells within heart tissue” value (“distribution” below) with heart tissue is recorded as “papillary fibers have a higher concentration of cells than the cardiac muscle”. In addition, the “tissue to which the peptide homed” value in the series with ischemic hindlimb is recorded as “homed to ischemic muscle tissue”.
Take “PA-CRPPR (Palmitoyl-CRPPR) [palmitated peptide (cell paint)]”: in the series with heart tissue, the “distribution” value is listed as “some localization with vasculature”. The “tissue to which the peptide homed” value in the series with ischemic hindlimb was “homed to cardiac tissue”.
Consider “PA-KSTRKS (Palmitoyl-KSTRKS) [palmitated peptide (cell paint)]”, for which the “concentrations causing a decrease in mitochondrial activity” value in series [1] is ≥ 50 µg/mL. In addition, the “distribution” value in the series with heart tissue was “distributed cells with some localization in vessels”. In addition, in the series with ischemic hindlimb, the “tissue to which the peptide homed” value is given as “homed to ischemic skeletal muscle tissue”.
Turning to PA-SK(Biotin)NSCARSKNKDC [PA-BioCAR], the “cell labeling by the peptide” value in series [2] (FIGS. 4 and 5) is given as “labeled the cells efficiently”. The cell-associated fluorescence entry in series [2] (PA-BioCAR 0 to 2 mg/ml, 10 minutes, 37° C., streptavidin-PE) was “increasing cell-associated fluorescence with increasing PA-BioCAR concentration”. In the series with heart tissue (FIG. 14), the “correlation between heart damage (cardiac troponin I) and cell number” value was “more cells localizing in the heart after relatively larger damage”. In the series on heart tissue, the “distribution” value is listed as “distributed throughout the cardiac muscle”. For the same substance, the “tissue to which the peptide homed” value in the series on ischemic hindlimb was “homed to ischemic skeletal muscle tissue”.
